From US20250262169A1, “METHODS OF TREATING COENZYME Q10 DEFICIENCY” (BPGbio, Inc., priority 2024, published 2025)

What was measured:
[1] = rats, oral; cited from earlier work
[2] = cited from earlier work
[3] = cited from earlier work; remark: listed apart in the source
SH-SY5Y cell line = conditions: cited from earlier work
COQ2 = molecular target: T1, COQ2 (Homo sapiens, UniProt Q96H96); conditions: HL-60 cells; cited from earlier work
T1 construct: host or cells: HL-60 cells (endogenous enzyme)
T1 sequence (Q96H96 35-371): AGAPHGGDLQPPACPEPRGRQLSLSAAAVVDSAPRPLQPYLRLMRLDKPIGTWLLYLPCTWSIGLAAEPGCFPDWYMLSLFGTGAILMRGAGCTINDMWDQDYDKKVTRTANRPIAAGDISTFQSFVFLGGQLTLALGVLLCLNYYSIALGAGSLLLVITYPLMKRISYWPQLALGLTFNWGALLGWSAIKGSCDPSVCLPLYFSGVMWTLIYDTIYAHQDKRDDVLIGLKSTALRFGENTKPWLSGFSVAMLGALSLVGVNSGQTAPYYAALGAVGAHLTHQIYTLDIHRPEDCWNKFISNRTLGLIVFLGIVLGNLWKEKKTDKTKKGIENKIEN

SH-SY5Y cells = assay: Oxidized CoQ10 levels in PABA-induced CoQ10 deficient neuronal cells; type: cell-based; conditions: 1 mM PABA for 5 days
From the text: An established model of CoQ10 deficiency was used to study the effects of BPM31510 in vitro. […] A neuronal cell model of CoQ10 deficiency by treatment of the neuronal SH-SY5Y cell line with PABA has previously been established. In this model, a significant reduction of cellular ATP production and increase in mitochondrial reactive oxygen species (ROS) was observed. […] Therefore, this PABA-induced CoQ10 deficient in vitro model was used to evaluate the potency of BPM31510 to restore ATP levels and reduce mitochondrial ROS.
SH-SY5Y cells were pretreated for 5 days with 1 mM PABA or vehicle in all experiments.

[4] = young rats, after four days of dosing
[5] = CoQ10 supplementation 2.5 μM and 5 μM

COC1=C(OC)C(=O)C(C/C=C(\C)CC/C=C(\C)CC/C=C(\C)CC/C=C(\C)CC/C=C(\C)CC/C=C(\C)CC/C=C(\C)CC/C=C(\C)CC/C=C(\C)CCC=C(C)C)=C(C)C1=O [CoQ10, Coenzyme Q10]
orally-administered CoQ10 absorbed [1]: 2-3% | concentration of CoQ10 in brain ([2]; 1-2 month old animals, oral administration): did not increase | CoQ10 in cerebral tissues ([2]; 12 month old and 24 month old rats, oxidized and reduced forms): accumulation of CoQ10 in cerebral tissues | concentration in heart or kidney [2, 4]: no increase | plasma, liver, and spleen concentrations [2, 4]: increased | solubility in water [3]: insoluble in water | electron transport chain (ETC) activities (SH-SY5Y cell line; [5]): unable to fully restore | mitochondrial oxidative stress (SH-SY5Y cell line; [5]): effective at significantly reducing | exogenous CoQ10 required to restore ETC activities (SH-SY5Y cell line; PABA treated SH-SY5Y): > 10 µM | correction of ATP and ROS levels (SH-SY5Y cell line; higher concentrations (>10 μM), reports in literature): not complete

Nc1ccc(C(=O)O)cc1 [PABA, Para-aminobenzoic acid]
COQ2 activity (COQ2): inhibit COQ2 activity | reduction of oxidized CoQ10 levels (SH-SY5Y cells): approximately 90%
